Read-outs that look alike come from different tables or passages of the source.
Tests used:
[1] = biological target: vanilloid receptor 1 (VR1/TRPV1 receptor) (Homo sapiens, UniProt Q8NER1); test: Binding affinity for the vanilloid receptor 1
Protocol: The affinity of the pentafluorosulphanyl-substituted compounds according to the invention for the vanilloid receptor 1 (VR1/TRPV1 receptor) was determined as described above.

[2] = biological target: T1, vanilloid receptor 1 (VR1/TRPV1) of the rat (Rattus norvegicus, UniProt O35433); test: FLIPR Ca2+ influx assay in rat dorsal root ganglia cells (functional investigation I); type: cell-based; settings: for IC50: VR1 rat; for VR1 (rat) (% blocking compared with 1 μM CP) / VR1 (rat) (% stimulation compared with 1 μM CP): rat DRG cells, test compound 1 μM; for VR1 (rat) (% blocking compared with 1 μM CP): 5 min incubation, then 100 nM capsaicin; for VR1 (rat) (% stimulation compared with 1 μM CP): Ca2+ signal relative to 1 μM capsaicin (CP)
T1 construct: The spinal column was removed from decapitated rats; from tissue; host or cells: primary rat dorsal root ganglion (DRG) cells
Description: I. Functional Investigation Using the Vanilloid Receptor 1 (VR1/TRPV1 Receptor)
The agonistic and antagonistic effects of the substances under investigation on the vanilloid receptor 1 (VR1/TRPV1) of the rat can be determined using the following assay. According to this assay, the Ca^2+ influx through the receptor channel is quantified with the aid of a Ca^2+-sensitive dye (of the type Fluo-4, from Molecular Probes Europe BV, Leiden, Netherlands) in a Fluorescent Imaging Plate Reader (FLIPR, from Molecular Devices, Sunnyvale, USA).
Complete medium: 10% by volume FCS (foetal calf serum, from Gibco Invitrogen GmbH, Karlsruhe, Germany, heat deactivated);
2 mM L-glutamine (from Sigma, Munich, Germany);
1% by weight of AA solution (antibiotic/antimycotic solution, from PAA, Pasching, Austria) and 25 ng/ml Medium NGF (2.5 S, from Gibco Invitrogen GmbH, Karlsruhe, Germany)
Cell culture plate: poly-D-lysine-coated, black 96-well plates with clear bases (96 well black/clear plate, from BD Biosciences, Heidelberg, Germany) were also coated with laminin (from Gibco Invitrogen GmbH, Karlsruhe, Germany), in that the laminin was diluted to a concentration of 100 μg/ml with PBS (Ca—Mg-free PBS, from Gibco Invitrogen GmbH, Karlsruhe, Germany). Aliquots with a concentration of 100 μg/ml of laminin were taken and stored at −20° C. The aliquots were diluted with PBS in a ratio of 1:10 to 10 μg/ml laminin and 50 μl of the solution was pipetted into each well in the cell culture plate. The cell culture plates were then incubated for at least two hours at 37° C., the residual solution drawn off and the wells washed twice with PBS. The coated cell culture plates were stored with the residual PBS, which was removed immediately before offering up the cells.
Preparation of the Cells:
The spinal column was removed from decapitated rats and laid directly into cold (placed in an ice bath) HBSS buffer (Hank's buffered saline solution, from Gibco Invitrogen GmbH, Karlsruhe, Germany) to which was added 1% by volume of an AA-solution (antibiotic/antimycotic solution, from PAA, Pasching, Austria). The spinal column was bisected longitudinally and removed, together with the fasciae, from the vertebral canal. The dorsal root ganglia (DRGs) were then removed and again placed in cold HBSS buffer to which was added 1% by volume of an AA-solution, and stored. The DRGs, completely freed from residual blood and spinal nerves were transferred, in each case, into 500 μl cold collagenase type 2 (from PAA, Pasching, Austria) and incubated for 35 minutes at 37° C. Following addition of 2.5% by volume of trypsin (from PAA, Pasching, Austria), the material was incubated for a further 10 minutes at 37° C. Following complete incubation, the enzyme solution was carefully pipetted off and 500 μl complete medium was added to the remaining DRGs. The DRGs were suspended several times in each case, drawn by means of a syringe through No. 1, No. 12 and No. 16 cannulae and transferred to 50 ml Falcon tubes and these then filled to 15 ml with complete medium. The contents of each Falcon tube was filtered through a 70 μm Falcon filter insert and centrifuged for 10 minutes at 1200 revolutions and at room temperature. The resulting pellet was added, in each case, to 250 μl complete medium and the cell count was determined.
The number of cells in the suspension was adjusted to 3×10^5 per ml and, in each case, 150 μl of this suspension was placed in a well in the coated cell culture plate of the type described above. The plates were left in an incubation cupboard at 37° C. under 5% by volume CO2 and 95% relative humidity for two to three days. […]

[3] = biological target: T2, VR1 (human) (Homo sapiens, UniProt Q8NER1); test: FLIPR Ca2+ influx assay in CHO K1 cells stably transfected with the VR1 gene (functional investigation II); type: cell-based; settings: for VR1 (human) (% blocking compared with 1 μM CP) / VR1 (human) (% stimulation compared with 1 μM CP): VR1-transfected CHO K1 cells; for VR1 (human) (% blocking compared with 1 μM CP): 5 min incubation, then 100 nM capsaicin; for VR1 (human) (% stimulation compared with 1 μM CP): Ca2+ signal relative to capsaicin (CP)
T2 construct: expressed in transfected cells; host or cells: CHO K1 cells (ECACC)
Description: II. Functional Investigation Using the Vanilloid Receptor (VR1)
The agonistic or antagonistic effect of the substances to be investigated on the vanilloid receptor (VR1) can also be determined with the following assay. According to this assay, the Ca^2+ influx through the channel can be quantified with the aid of a Ca^2+ sensitive dye (of the type Fluo-4, from Molecular Probes, Europe BV, Leiden, Netherlands) in a Fluorescent Imaging Plate Reader (FLIPR, from Molecular Devices, Sunnyvale, USA).
Chinese hamster ovary cells (CHO K1-cells, from the European Collection of Cell Cultures (ECACC), UK) were stably transfected with the VR1 gene. For functional investigations, these cells were plated out on Poly-D-lysine-coated, black 96-well plates with clear bases (from BD Biosciences, Heidelberg, Germany) at a density of 25,000 cells/well. The cells were incubated over night at 37° C. and under 5% CO2 in a culture medium (Nutrient Mixture Ham's F12, 10% by volume FCS (foetal calf serum), 18 μg/ml L-proline). The following day, the cells were incubated with Fluo-4 (Fluo-4 2 μM, Pluronic F127 0.01% by volume, from Molecular Probes in HBSS (Hank's buffered saline solution), from Gibco Invitrogen GmbH, Karlsruhe, Germany) for 30 minutes at 37° C. Subsequently, the plates were washed 3 times with HBSS buffer and, following a further period of incubation for 15 minutes at room temperature, placed in the FLIPR for Ca^2+ measurement. The Ca^2+-dependent fluorescence was measured before and after the addition of the substances to be investigated (wavelength λBX=488 nm, λem=540 nm). Quantification took place by measuring the highest intensity of fluorescence (FC, fluorescence counts) over time.
The FLIPR protocol comprises 2 substance additions. […] Following 5 minutes of incubation, 100 nM capsaicin were applied and the Ca^2+ influx determined again.
Desensitising agonists and antagonists lead to a suppression of the Ca^2+ influx. % inhibition is calculated, compared with the maximum achievable inhibition with 10 μM capsaicin.

T2 sequence (Q8NER1 whole entry): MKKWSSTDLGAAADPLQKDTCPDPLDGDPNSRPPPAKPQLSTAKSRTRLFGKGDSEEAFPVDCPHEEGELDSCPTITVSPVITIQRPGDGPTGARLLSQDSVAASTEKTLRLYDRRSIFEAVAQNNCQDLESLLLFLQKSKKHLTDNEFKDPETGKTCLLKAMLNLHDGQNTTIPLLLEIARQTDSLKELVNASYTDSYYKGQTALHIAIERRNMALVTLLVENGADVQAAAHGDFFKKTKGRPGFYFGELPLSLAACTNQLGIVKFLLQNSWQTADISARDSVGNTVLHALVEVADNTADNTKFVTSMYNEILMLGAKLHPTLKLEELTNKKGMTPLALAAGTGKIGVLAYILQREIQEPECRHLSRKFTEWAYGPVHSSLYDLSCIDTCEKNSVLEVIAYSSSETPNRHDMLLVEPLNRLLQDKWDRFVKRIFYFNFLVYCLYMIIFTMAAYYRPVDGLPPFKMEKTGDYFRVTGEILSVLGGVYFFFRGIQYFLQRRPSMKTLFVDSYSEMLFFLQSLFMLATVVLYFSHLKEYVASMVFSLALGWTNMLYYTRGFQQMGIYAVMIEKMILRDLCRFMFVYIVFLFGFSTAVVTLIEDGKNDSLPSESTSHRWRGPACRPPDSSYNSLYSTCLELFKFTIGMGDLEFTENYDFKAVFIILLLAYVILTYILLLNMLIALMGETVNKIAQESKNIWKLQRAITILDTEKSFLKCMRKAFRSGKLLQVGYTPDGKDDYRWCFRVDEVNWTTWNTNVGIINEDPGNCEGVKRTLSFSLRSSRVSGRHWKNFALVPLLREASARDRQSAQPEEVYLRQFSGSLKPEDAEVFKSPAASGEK
vanilloid receptor 1 (VR1/TRPV1 receptor), sequence (Q8NER1 whole entry, species assumed): as the sequence (Q8NER1 whole entry) above
T1 sequence (O35433 whole entry): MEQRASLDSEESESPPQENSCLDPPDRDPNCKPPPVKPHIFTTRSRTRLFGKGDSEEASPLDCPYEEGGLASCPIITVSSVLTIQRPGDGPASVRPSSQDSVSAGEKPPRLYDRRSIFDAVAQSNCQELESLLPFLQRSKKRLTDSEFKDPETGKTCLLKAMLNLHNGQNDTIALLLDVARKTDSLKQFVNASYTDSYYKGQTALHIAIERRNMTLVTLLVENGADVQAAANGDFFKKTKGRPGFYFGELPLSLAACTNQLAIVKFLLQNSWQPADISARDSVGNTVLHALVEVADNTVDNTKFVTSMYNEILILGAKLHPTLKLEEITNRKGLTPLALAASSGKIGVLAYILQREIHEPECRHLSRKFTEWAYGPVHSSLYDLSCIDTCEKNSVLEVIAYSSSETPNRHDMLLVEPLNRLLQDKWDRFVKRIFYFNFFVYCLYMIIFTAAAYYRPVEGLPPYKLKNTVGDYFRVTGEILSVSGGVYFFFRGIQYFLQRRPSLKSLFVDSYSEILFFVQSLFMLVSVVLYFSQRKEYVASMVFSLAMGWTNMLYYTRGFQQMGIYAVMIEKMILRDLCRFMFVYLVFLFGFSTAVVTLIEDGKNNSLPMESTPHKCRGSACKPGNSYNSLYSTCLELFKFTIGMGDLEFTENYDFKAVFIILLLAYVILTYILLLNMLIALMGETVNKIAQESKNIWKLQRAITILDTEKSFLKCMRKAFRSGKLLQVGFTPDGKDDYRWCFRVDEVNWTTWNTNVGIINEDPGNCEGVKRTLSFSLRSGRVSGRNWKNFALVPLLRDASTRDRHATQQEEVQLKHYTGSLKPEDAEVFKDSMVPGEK

Structure (SMILES)	Ki ([1]; read-out: Binding Ki)	IC50 [2]	VR1 (rat) (% blocking compared with 1 μM CP) [2]	VR1 (rat) (% stimulation compared with 1 μM CP) [2]	VR1 (human) (% blocking compared with 1 μM CP) [3]	VR1 (human) (% stimulation compared with 1 μM CP) [3]	IC50 ([3]; VR1 human, read-out: IC50 (human))	Ki [1]	IC50 [3]
CS(=O)(=O)Nc1ccc(CNC(=S)NCc2ccc(S(F)(F)(F)(F)F)cc2)cc1F [Example 1, N-{4-[3-(4-pentafluorosulphanyl-benzyl)-thioureidomethyl]-2-fluoro-phenyl}-methanesulphonamide]	84 nM	360 nM	90.27%	0.02%	87.67%	0.68%	800 nM	–	–
O=C(Nc1ccc(S(F)(F)(F)(F)F)cc1)N1CCN(c2ncccc2Cl)CC1 [Example 2, 4-(3-chloro-pyridin-2-yl)-piperazine-1-carboxy-(4-pentafluorosulphanyl-phenyl)-amide]	–	48 nM	101.93%	0.63%	105.44%	3.72%	–	12 nM	250 nM
FS(F)(F)(F)(F)c1ccc(NC(=S)N2CCN(c3ncccc3Cl)CC2)cc1 [Example 3, 4-(3-chloro-pyridin-2-yl)-piperazine-1-thiocarboxy-(4-pentafluorosulphanyl-phenyl)-amide]	94 nM	–	–	–	–	–	–	–	–
